Measurements as given in US11535632B2, “Solid forms of an S1P-receptor modulator” (ESCAPE Bio, Inc., priority 2019, dated 2022).
Read-outs that look alike come from different tables or passages of the source. One block for each compound: values may come before it.

Assays:
Assay type in all cases: physicochemical
[1] = Room temperature equilibrium solubility in aqueous suspensions; conditions: listed as Compound 1, Form A; for Total drug in solution: room temperature equilibrium, HPLC of supernatant
[2] = Hygroscopicity evaluation by DVS at 25° C.
Experimental: Hygroscopicity of Compound 1, Form A and Compound 1, Form B was evaluated by DVS at 25° C.

[3] = Solid state stability study
From the text: The two lots of Compound 1 were characterized by HPLC, PLM, XRPD, DSC, TGA, and KF. […] According to the stability study at different conditions, the two forms of compound were practically stable at different humidity for at least 4 weeks, with no XRPD pattern change and no growth of impurities were found.

[4] = Competitive slurries of Form B and C in process relevant solvents; conditions: 90° C. in DMSO
Experimental: Determination of the relative stabilities of Form B and Form C was undertaken to identify which material was more thermodynamically stable in process relevant solvents. As a suspected solvate was isolated from experiments where DMAC was used as a solvent, only DMSO and acetic acid were determined to be appropriate process solvents. Combinations of these solvents with relevant antisolvents were therefore selected for the competitive slurry experiments.
Compound 1 (from Example 2) was dispensed into HPLC vials. To these, 1 ml of selected solvents was subsequently added to give a suspension. Materials were slurried for 72 hours at 90° C., 50° C. or 25° C. with 500 rpm stirring. Material was subsequently isolated by centrifugation and analyzed by XRPD.

[5] = Solubility and metastable zone width by Crystal 16; conditions: damp material isolated from DMAC, dried
Experimental: A Crystal 16 crystallization system (Technobis, NL) was used to determine the solubility and metastable zone of the material as a function of temperature. Slurries of the API, in different overall concentrations, were prepared by adding a known amount of solid to a known amount of chilled solvent (between 0.5 and 1.5 ml) and stirred at 350 rpm using a magnetic bar. The saturation temperature was measured through cycles of heating and cooling from 20 to 90° C. at 0.5° C./min.
Upon increasing the temperature, the solid completely dissolved and the suspension became a clear solution such that the light transmission reached its maximum value. This temperature was assigned as the clear point, which was assumed to coincide with the saturation temperature. Then, by cooling the solution at a rate of 0.5° C./min, the temperature at which particles first formed was detected by a decrease in the light transmission. This was assigned as the cloud point. The points were fitted by a Van′t Hoff equation and the difference between the cloud and the clear points defined the metastable zone width (MSZW) of the system. The instrument control software was Crystallization Systems and the data were analyzed using Crystal Clear and Microsoft Excel.
The solubility of compound 1 (various masses) in DMAC and DMSO (1 ml) was analyzed on the Crystal 16 (between 25-90° C. for DMSO and 0-90° C. for DMAC). A heating/cooling rate of 0.5° C./min and a stirring rate of 300 rpm was used for all samples. The resulting turbidity/temperature plots were analyzed to obtain solubility curves and determine the metastable zone width. Any precipitated solids were isolated by filtration and analyzed by XRPD.

Total drug in solution ([1]; 0.2% HPMC aqueous suspension): 1.3 µg/mL | pH ([1]; 0.2% HPMC aqueous suspension): 7.2 | Total drug in solution ([1]; 0.25% SLS aqueous suspension): 23.7 µg/mL | pH ([1]; 0.25% SLS aqueous suspension): 6.9 | Total drug in solution ([1]; 20% HP-BCD aqueous suspension): 446.5 µg/mL | pH ([1]; 20% HP-BCD aqueous suspension): 5.7 | XRPD after DVS test [2]: No form change but crystallinity | DVS Desorp. (%) ([2]; 0% RH, 1st Desorp.): 0.00% | DVS Sorp. (%) ([2]; 0% RH, 1st Sorp.): 0.00% | DVS Desorp. (%) ([2]; 0% RH, 2nd Desorp.): 0.00% | DVS Sorp. (%) ([2]; 0% RH, 2nd Sorp.): 0.00% | DVS Desorp. (%) ([2]; 10% RH, 1st Desorp.): 0.01% | DVS Sorp. (%) ([2]; 10% RH, 1st Sorp.): 0.00% | DVS Desorp. (%) ([2]; 10% RH, 2nd Desorp.): 0.01% | DVS Sorp. (%) ([2]; 10% RH, 2nd Sorp.): 0.00% | DVS Desorp. (%) ([2]; 20% RH, 1st Desorp.): 0.01% | DVS Sorp. (%) ([2]; 20% RH, 1st Sorp.): −0.01% | DVS Desorp. (%) ([2]; 20% RH, 2nd Desorp.): 0.01% | DVS Sorp. (%) ([2]; 20% RH, 2nd Sorp.): 0.00% | DVS Desorp. (%) ([2]; 30% RH, 1st Desorp.): 0.02% | DVS Sorp. (%) ([2]; 30% RH, 1st Sorp.): 0.00% | DVS Desorp. (%) ([2]; 30% RH, 2nd Desorp.): 0.02% | DVS Sorp. (%) ([2]; 30% RH, 2nd Sorp.): 0.01% | DVS Desorp. (%) ([2]; 40% RH, 1st Desorp.): 0.02% | DVS Sorp. (%) ([2]; 40% RH, 1st Sorp.): 0.00% | DVS Desorp. (%) ([2]; 40% RH, 2nd Desorp.): 0.02% | DVS Sorp. (%) ([2]; 40% RH, 2nd Sorp.): 0.01% | DVS Sorp. (%) ([2]; 50% RH, 1st Sorp.): 0.01% | DVS Desorp. (%) ([2]; 50% RH, 2nd Desorp.): 0.03% | DVS Sorp. (%) ([2]; 60% RH, 1st Sorp.): 0.01% | DVS Desorp. (%) ([2]; 60% RH, 2nd Desorp.): 0.03% | DVS Sorp. (%) ([2]; 70% RH, 1st Sorp.): 0.02% | DVS Desorp. (%) ([2]; 70% RH, 2nd Desorp.): 0.04% | DVS Sorp. (%) ([2]; 80% RH, 1st Sorp.): 0.02% | DVS Desorp. (%) ([2]; 80% RH, 2nd Desorp.): 0.04% | DVS Sorp. (%) ([2]; 90% RH, 1st Sorp.): 0.03% | DVS Desorp. (%) ([2]; 90% RH, 2nd Desorp.): 0.04% | DVS Sorp. (%) ([2]; 95% RH, 1st Sorp.): 0.01% | DVS Desorp. (%) ([2]; 95% RH, 2nd Desorp.): 0.01% | Hygroscopicity based on DVS results ([2]; listed as Compound 1, Form A): non-hygroscopic | Crystallinity (XRPD & PLM) ([3]; 4 weeks, 25° C./60% RH): Crystalline | Purity ([3]; 4 weeks, 25° C./60% RH): 99.48% | Weight loss (TGA) (~120° C.) ([3]; 4 weeks, 25° C./60% RH): 0.981% | Crystallinity (XRPD & PLM) ([3]; 4 weeks, 40° C./75% RH): Crystalline | Purity ([3]; 4 weeks, 40° C./75% RH): 99.46% | Weight loss (TGA) (~120° C.) ([3]; 4 weeks, 40° C./75% RH): 0.884% | Crystallinity (XRPD & PLM) ([3]; 6 weeks, 25° C./60% RH): Crystalline | Purity ([3]; 6 weeks, 25° C./60% RH): 99.54% | Water content ([3]; 6 weeks, 25° C./60% RH): 0.784% | Weight loss (TGA) (~120° C.) ([3]; 6 weeks, 25° C./60% RH): 0.831% | Crystallinity (XRPD & PLM) ([3]; 6 weeks, 40° C./75% RH): Crystalline | Purity ([3]; 6 weeks, 40° C./75% RH): 99.47% | Water content ([3]; 6 weeks, 40° C./75% RH): 0.547% | Weight loss (TGA) (~120° C.) ([3]; 6 weeks, 40° C./75% RH): 0.739% | Crystallinity (XRPD & PLM) ([3]; 8 weeks, 25° C./60% RH): Crystalline | Purity ([3]; 8 weeks, 25° C./60% RH): 99.51% | Water content ([3]; 8 weeks, 25° C./60% RH): 0.559% | Weight loss (TGA) (~120° C.) ([3]; 8 weeks, 25° C./60% RH): 0.946% | Crystallinity (XRPD & PLM) ([3]; 8 weeks, 40° C./75% RH): Crystalline | Purity ([3]; 8 weeks, 40° C./75% RH): 99.53% | Water content ([3]; 8 weeks, 40° C./75% RH): 0.608% | Weight loss (TGA) (~120° C.) ([3]; 8 weeks, 40° C./75% RH): 0.801% | Crystallinity (XRPD & PLM) ([3]; Initial): Crystalline | Purity ([3]; Initial): 99.46% | Water content ([3]; Initial): 0.513% | Weight loss (TGA) (~120° C.) ([3]; Initial): 0.722% | Relative thermodynamic stability [4]: most thermodynamically stable polymorph
Compound: O=C(O)[C@H]1C[C@@H](N2CCc3oc(-c4ccc(OCc5ccc(Cl)cc5)cc4)nc3C2)C1 [Form A, (1s,3s)-3-(2-(4-((4-chlorobenzyl)oxy)phenyl)-6,7-dihydrooxazolo[4,5-c]pyridin-5(4H)-yl)cyclobutane-1-carboxylic acid]
XRPD after DVS test ([2]; listed as Compound 1, Form A): no form change but crystallinity decreased and peaks became broad

Form change upon drying (XRPD) [5]: converted to Form C
Compound: O=C(O)[C@H]1C[C@@H](N2CCc3oc(-c4ccc(OCc5ccc(Cl)cc5)cc4)nc3C2)C1 [Form D, (1s,3s)-3-(2-(4-((4-chlorobenzyl)oxy)phenyl)-6,7-dihydrooxazolo[4,5-c]pyridin-5(4H)-yl)cyclobutane-1-carboxylic acid]
